Results as given in patent EP2659887A1, “Use of A-ring aromatic acetyl minocycline and pharmaceutical preparations derived from same for treatment and prevention of inflammation, autoimmune disorders and rejection of transplants” (priority 2012, dated 2013).

How the values were obtained:
humane T-Lymphozyten [1] = assay: Viability of stimulated human T lymphocytes (CellTiter-Blue Cell Viability Assay); conditions: up to 5,0 µM; PWM (Figur 2A) or anti-CD3 (Figur 2B) stimulation
Description: Humane T-Lymphozyten wurden in serumfreiem Kulturmedium mit anti-CD3-Antikörpern (Klon OKT3) bzw. mit Pokeweed-Mitogen (PWM, 2 µg/ml) in An- und Abwesenheit verschiedener Konzentrationen von Minocyclin oder Pentaacetylcyclin stimuliert. Die Ermittlung der Proliferation (DNS-Synthese) der Zellen erfolgte nach 72 Stunden über den Einbau von 3H-Thymidin. Zur Überprüfung der Vitalität der Zellkulturen wurde der CeIITiter-Blue® Cell Viability-Assay (Promega) verwendet.

[2] = test system: Splenozyten (Milzzellen) von SJL/J-Mäusen; assay: Proliferation (DNA synthesis, 3H-thymidine incorporation) of stimulated mouse splenocytes; type: cell-based, Maus; conditions: 2,5 bzw. 5,0 µM
Description: (§1) In weiteren in vitro-Untersuchungen dienten Splenozyten (Milzzellen) von SJL/J-Mäusen zur Testung der immunmodulatorischen/immunsuppressiven Wirkung der Testsubstanzen. Nach Stimulation der Splenozyten mit Pokeweed-Mitogen (PWM, 1 μg/ml) oder mit […] (Klon 145-2C11, BD Biosciences) erfolgte die Inkubation dieser Immunzellen in An- oder Abwesenheit verschiedener Konzentrationen von Minocyclin und Pentaacetylcyclin. Die anschließende Proliferation (DNS-Synthese) der Zellen wurde nach 72 Stunden über den Einbau von […]-Blue® Cell Viability-Assays (Promega).

humane T-Lymphozyten [3] = assay: Cytokine production of PWM-stimulated human T lymphocytes (ELISA of culture supernatants); type: cell-based; conditions: PWM 2 µg/ml, 48 h
Description: Zytokine stellen Indikatoren für die Stärke einer Entzündungsreaktion dar und sind aktive Regulatoren der Differenzierung und Proliferation von T-Lymphozyten. Aus diesem Grund lassen sich aus den in einem in vitro-Testsystem gewonnenen Daten zur Produktion/Freisetzung von Zytokinen detailliertere Aussagen über die immunmodulierenden/immunsuppressiven Eigenschaften von Testsubstanzen herleiten.
Anschließend erfolgte die Messung der Konzentrationen von Interferon-y (IFN-y), Interleukin-2 (IL-2) und Interleukin-17 (IL-17) in den Zellkulturüberständen mittels spezifischer ELISA (R&D Systems).

[4] = test system: Experimentelle Autoimmune Enzephalomyelitis (EAE); assay: Number of inflammatory immune cell infiltrates in the spinal cord after EAE (histology); type: in vivo, SJL/J-Mäusen; conditions: intraperitoneal or oral, 100 µg/Tag, Tag 13 bis Tag 17; analysis Tag 20
Description: Als Folge einer T-Lymphozyten-Aktivierung und -Differenzierung kommt es bei der EAE zu einer massiven Einwanderung (Infiltration) von Immunzellen in das Rückenmark der Mäuse. Diese Immunzellen vermitteln durch Demyeliniserung und neuronale Schädigung die weitere Erkrankung und lassen sich auf histologischen Schnitten als entzündliche Infiltrate darstellen und analysieren. Die Stärke der Infiltration von Immunzellen in das Rückenmark während der EAE korreliert im Allgemeinen mit dem Schweregrad der EAE-Erkrankung.
Deshalb erfolgte die histologische Analyse der entzündlichen Infiltrate im Rückenmark von SJL/J-Mäusen nach EAE und 5-tägiger therapeutischer Applikation von Minocycline bzw. Pentaacetylcyclin.
Die EAE wurde in SJL/J-Mäusen durch Immunisierung mit einem Myelinprotein-Peptid (Proteolipid-Protein 139-151, PLP 139-151) induziert. Die Applikation von Minocyclin, Pentaacetylcyclin und einem Kontroll-Vehikel erfolgte in einem therapeutischen Ansatz (nach eindeutiger Ausbildung der EAE-Erkrankung) in zwei getrennten Versuchsansätzen: • 1.) intraperitoneal (i.p., 100 µg/Tag) von Tag 13 bis Tag 17 • 2.) oral (100 µg/Tag) von Tag 13 bis Tag 17.
Am Tag 20 nach Immunisierung erfolgte die Aufarbeitung des Rückenmarks der Mäuse für histologische Untersuchungen (Paraffin-Schnitte, HE-Färbungen). […]

[5] = test system: Splenozyten (Milzzellen) der SJL/J-Mäuse; assay: Cytokine release of PWM-stimulated mouse splenocytes (ELISA of culture supernatants); type: cell-based, Maus; conditions: Splenocyte, remaining release at 5,0 µM, 48 h (Figur 6A), read-out: Reduktion der Freisetzung von IFN-γ (auf)
Description: Zur Verifizierung der an humanen […] in vitro-Untersuchungen an Splenozyten (Milzzellen) der SJL/J-Mäuse. Diese Splenozyten von wurden mit Pokeweed-Mitogen (PWM, 1 μg/ml) stimuliert und in An- oder Abwesenheit verschiedener Konzentrationen von Minocyclin und Pentaacetylcyclin inkubiert. Nach 48 Stunden erfolgte die Analyse der Zellkulturüberstände hinsichtlich der Freisetzung der Zytokine Interferon-y (IFN-y) und Interleukin-17 (IL-17) mittels spezifischer ELISA (R&D Systems).

[6] = test system: Experimentelle Autoimmune Enzephalomyelitis (EAE); assay: Experimental autoimmune encephalomyelitis (EAE) mouse model of multiple sclerosis, therapeutic treatment, EAE score; type: in vivo, SJL/J-Maus; conditions: 100 µg/Tag; for Effekt auf die akute Phase der EAE (EAE-Score): intraperitoneal, Tag 12 bis Tag 20, therapeutic
Description: Als Maß für die Wirkung der therapeutischen Applikation wurde täglich der Schweregrad der EAE-Erkrankung (EAE-Score) bestimmt.

humane T-Lymphozyten [7] = assay: Proliferation (DNA synthesis, 3H-thymidine incorporation) of stimulated human T lymphocytes; type: cell-based; conditions: remaining proliferation; PWM or anti-CD3 stimulation, 2,5 bis 5,0 µM
Description: In in vitro-Untersuchungen dienten humane T-Lymphozyten des peripheren Blutes gesunder Spender zur Testung der immunmodulatorischen/immunsuppressiven Wirkung der Testsubstanzen. Eine gesteigerte Zellteilung/Proliferation dieser Immunzellen nach Stimulation simuliert in vitro eine Entzündungsreaktion. Eine Verringerung dieser stimulierten Proliferation durch applizierte Substanzen veranschaulicht deren immunmodulatorischen/immunsuppressiven Eigenschaften.

[8] = test system: Splenozyten (Milzzellen) von SJL/J-Mäusen; assay: Viability of stimulated mouse splenocytes (CellTiter-Blue Cell Viability Assay); type: cell-based, Maus; conditions: up to 5,0 µM; PWM (Figur 5A) or anti-CD3 (Figur 5B) stimulation
Description: as §1

CN(C)c1ccc(O)c2c1C[C@H]1C[C@H]3[C@H](N(C)C)C(O)=C(C(N)=O)C(=O)[C@@]3(O)C(O)=C1C2=O [Minocyclin]
Vitalität der T-Lymphozyten (humane T-Lymphozyten [1]): nicht beeinträchtigt

CC(=O)NC(=O)c1c(OC(C)=O)c2c(c(N(C)C)c1OC(C)=O)CC1Cc3c(N(C)C)ccc(OC(C)=O)c3C(=O)C1=C2OC(C)=O (centres unmarked) [Pentaacetylcyclin]
Proliferation (DNS-Synthese) stimulierter Splenozyten ([2]; PWM (1 µg/ml) or anti-CD3 (145-2C11) stimulation, 72 h): signifikante Hemmung | reduzierte Zellteilung (bis auf) ([2]; remaining proliferation, 4320 min): ca. 30% | Produktion/Freisetzung von IL-2 (humane T-Lymphozyten [3]; 2,5 bis 5,0 µM (Figur 3A)): signifikante Hemmung | Produktion/Freisetzung von IFN-γ (humane T-Lymphozyten [3]; 2,5 bis 5,0 µM (Figur 3B)): signifikante Hemmung | Produktion/Freisetzung von IL-17 (humane T-Lymphozyten [3]; 2,5 bis 5,0 µM (Figur 3C)): signifikante Hemmung | Vitalität der T-Lymphozyten (humane T-Lymphozyten [1]): nicht beeinträchtigt | Zahl der entzündlichen Infiltrate im Rückenmark [4]: deutliche Verringerung | activity at 5 µM [5]: ~60% | Effekt auf die akute Phase der EAE (EAE-Score) [6]: signifikanten therapeutischen Effekt | Effekt auf die akute Phase der EAE (EAE-Score) ([6]; listed as Pentaacetylminocyclin): signifikanten Einfluss | Einfluss auf die akute Phase der EAE (EAE-Score) ([6]; oral, Tag 14 bis Tag 22, therapeutic): signifikanten Einfluss | reduzierte Zellteilung (bis auf) (humane T-Lymphozyten [7]): ca. 20% | Vitalität der Splenozyten [8]: keine Veränderung
